The results in this text go back to ChEMBL document CHEMBL1127843, “2-(3,4-Dichlorophenyl)-N-methyl-N-[(1S)-1-(3-isothiocyanatophenyl)-2-(1-pyrrolidinyl)ethyl]acetamide: an opioid receptor affinity label that produces selective and long-lasting kappa antagonism in mice” (J Med Chem, 1994).

By IC50 is commonly meant the concentration at which inhibition is half-maximal.

The experiment has as its system Mus musculus. The experiment is described as follows: Compound was evaluated for […] antagonist activity towards Mouse vas deferens(MVD). The experiment is classed as functional.

Consider `CN(C(=O)Cc1ccc(Cl)c(Cl)c1)[C@H](CN1CCCC1)c1cccc(N=C=S)c1`, for which half-maximal inhibition (IC50) required 11.1 nM.
